Test results taken from patent US20040023295A1, “Methods and systems for analyzing complex biological systems” (priority 2001, published 2004).
Entries after “also recorded” stand apart in the source; their conditions may differ.

Experiments:
[1] = tested on: Arabidopsis thaliana plants; experiment: Phenotypic analysis of herbicide-treated Arabidopsis plants (SOA1); type: in vivo; details: for characteristic symptoms (morphological phenotype): herbicide-treated Arabidopsis; for Dev. leafWidth: numeric values standardized to the average response for the mock treated tissues; for Dev. leafCurling / Dev. leafTwisting / Dev. matureLeafAnthocyanins / Dev. matureLeafChlorosis / Dev. matureLeafNecrosis / Dev. newLeafAnthocyanins / Dev. newLeafChlorosis / Dev. newLeafNecrosis / Dev. pointedLeaves: standardized to mock treated; for Symptom Class: three-week-old Arabidopsis sprayed with herbicide, phenotype classes of FIG. 12; for Dev. tMic: time for full range of symptoms at MIC, coded score
Magnaporthe grisea = type: cell-based
Arabidopsis thaliana [2] = experiment: Biochemical (metabolite) profiling by LC-MS and GC-MS of sprayed Arabidopsis (MOA1); details: for stress related (commonly regulated) metabolites: within one hour after spraying
Arabidopsis thaliana [3] = experiment: Gene expression profiling of sprayed Arabidopsis (MOA1); type: in vivo; details: for No. of Lethal Genes Altered: regulated genes identified as essential genes in internal database
[4] = tested on: Saccharomyces cerevisiae wild type strain BY4743; experiment: Yeast azole drug experiment AF1: metabolite analysis (GC-MS, LC-MS); type: cell-based
Arabidopsis thaliana [5] = experiment: Phenotypic profiling of Arabidopsis sprayed with unknown and commercial herbicides (MOA1); type: in vivo; details: Ward's method
[6] = early time points (20 min, 1 hour)
[7] = 1 hr, p < 0.5, arrays containing 22,000 Arabidopsis genes

Structure (SMILES): O=C(O)CNCP(=O)(O)O [Glyphosate]
- characteristic symptoms (morphological phenotype) [1]: anthocyanin accumulation in the older leaves accompanied by chlorosis of the newly emerging leaves
- Dev. leafWidth [1]: 0
- Dev. leafCurling [1]: 0
- Dev. leafTwisting [1]: 0
- Dev. matureLeafAnthocyanins [1]: 3
- Dev. matureLeafChlorosis [1]: 1
- Dev. matureLeafNecrosis [1]: 3
- Dev. newLeafAnthocyanins [1]: 1
- Dev. newLeafChlorosis [1]: 2
- Dev. newLeafNecrosis [1]: 0
- Dev. pointedLeaves [1]: 1
- Symptom Class [1]: 4
- Dev. tMic [1]: 2
- growth of M. grisea with ammonium or glutamine as nitrogen source (Magnaporthe grisea; 250 μg/ml): Little growth defect
- growth of M. grisea with nitrate or glutamate as nitrogen source (Magnaporthe grisea; 250 μg/ml): inhibited growth
- growth of M. grisea with nitrite as the sole nitrogen source (Magnaporthe grisea; 250 μg/ml): inhibited growth
- growth results for Tiers 3 and 4 as compared to Unknown 4 (Magnaporthe grisea; 250 μg/ml): nearly identical
- growth inhibition of M. grisea and its remediation (Magnaporthe grisea; 1.0 mg/ml): remediated by inclusion of aromatic amino acids
- tyrosine level relative to the control (Arabidopsis thaliana [2]; [6]): decreased relative to the control

Structure (SMILES): CS(=O)(=O)c1cc(C(F)(F)F)ccc1C(=O)c1cnoc1C1CC1 [Isoxaflutole]
- alterations in the expression of genes involved in the homogentisate biosynthetic pathway (Arabidopsis thaliana [3]; MOA1, 1 hr): not observed
- No. of Lethal Genes Altered (Arabidopsis thaliana [3]): 15
- Alpha-tocopherol level relative to the control (Arabidopsis thaliana [2]; early time points): not significantly changed
- phenylalanine level relative to the control (Arabidopsis thaliana [2]; [6]): up-regulated; also recorded: began to accumulate relative to the control
- tyrosine level relative to the control (Arabidopsis thaliana [2]; [6]): up-regulated; also recorded: began to accumulate relative to the control

Structure (SMILES): CC(C)N1C(=O)c2ccccc2NS1(=O)=O [Bentazon]
- characteristic symptoms (morphological phenotype) [1]: rapid and widespread leaf necrosis

Structure (SMILES): O=C(O)c1ccccc1C(=O)Nc1cccc2ccccc12 [Naptalam]
- Regulated Genes: Down (Arabidopsis thaliana [3]; [7]): 47
- Regulated Genes: Up (Arabidopsis thaliana [3]; [7]): 50
- No. of Lethal Genes Altered (Arabidopsis thaliana [3]): 3

Structure (SMILES): CC[C@@H]([C@H](C)O)n1ncn(-c2ccc(N3CCN(c4ccc(OC[C@@H]5CO[C@@](Cn6cncn6)(c6ccc(F)cc6F)C5)cc4)CC3)cc2)c1=O [Posaconazole]
- Fold Change: 4-aminobenzoic acid ([4]; platform nLC): 0

Structure (SMILES): O=C(O)c1cc(Oc2ccc(C(F)(F)F)cc2Cl)ccc1[N+](=O)[O-] [Acifluorfen]
- characteristic symptoms (morphological phenotype) [1]: Necrotic leaf flecks

Structure (SMILES): CC(C)OC(=O)Nc1cccc(Cl)c1 [Chloropropham]
- phenotype / hierarchical clustering of the eleven phenotypic characteristics (Arabidopsis thaliana [5]): neither showed a strong herbicidal phenotype
- stress related (commonly regulated) metabolites (Arabidopsis thaliana [2]): neither butylate nor chlorpropham treatment resulted in many changes

Structure (SMILES): CNc1cnn(-c2cccc(C(F)(F)F)c2)c(=O)c1Cl [Norflurazon]
- stress related (commonly regulated) metabolites (Arabidopsis thaliana [2]): Only a few, if any

Structure (SMILES): Nc1nc[nH]n1 [Amitrole]
- characteristic symptoms (morphological phenotype) [1]: leaf bleaching and leaf enlargement
- phenotype / hierarchical clustering of the eleven phenotypic characteristics (Arabidopsis thaliana [5]): exhibited chlorosis and not true bleaching

Structure (SMILES): COC(=O)c1cc(Oc2ccc(Cl)cc2Cl)ccc1[N+](=O)[O-] [Bifenox]
- characteristic symptoms (morphological phenotype) [1]: Necrotic leaf flecks

Structure (SMILES): OC(Cn1cncn1)(Cn1cncn1)c1ccc(F)cc1F [Fluconazole]
- Fold Change campesterol ([4]; GC): 0
- Fold Change desmosterol ([4]; GC): 0
- Fold Change octadecanoic acid ([4]; GC): 0.082
- Fold Change 4-methylcatechol ([4]; nLC): 0
- Fold Change 5hydroxyL-tryptophan ([4]; nLC): 0
- Fold Change 6-benzylaminopurine ([4]; nLC): 0
- Fold Change NacetylD-glucosamine ([4]; nLC): 0
- Fold Change NacetylL-ornithine ([4]; nLC): 0
- Fold Change abscisic acid ([4]; nLC): 0
- Fold Change adenine ([4]; nLC): 0
- Fold Change adenosine ([4]; nLC): 0
- Fold Change anthranilic acid ([4]; nLC): 0
- Fold Change argininosuccinate ([4]; nLC): 0
- Fold Change benzoic acid ([4]; nLC): 0
- Fold Change catechol ([4]; nLC): 0
- Fold Change cinnamic acid ([4]; nLC): 0
- Fold Change citricanoic/itaconi ([4]; nLC): 0
- Fold Change citrulline ([4]; nLC): 0
- Fold Change coumaric acid ([4]; nLC): 0
- Fold Change cytosine ([4]; nLC): 0
- Fold Change diaminopimelic acid ([4]; nLC): 0
- Fold Change dihydrofolic acid ([4]; nLC): 0
- Fold Change estrone ([4]; nLC): 0
- Fold Change farnesol ([4]; nLC): 0
- Fold Change folic acid ([4]; nLC): 0
- Fold Change gibberellic ([4]; nLC): 0
- Fold Change guanine ([4]; nLC): 0
- Fold Change histidine ([4]; nLC): 0
- Fold Change homogentisic/uric ([4]; nLC): 0
- Fold Change hydrocortisone ([4]; nLC): 0
- Fold Change indole3-pyruvic acid ([4]; nLC): 0
- Fold Change jasmonic acid ([4]; nLC): 0
- Fold Change kinetin ([4]; nLC): 0
- Fold Change luteolin ([4]; nLC): 0
- Fold Change malonic acid ([4]; nLC): 0
- Fold Change methionine ([4]; nLC): 0
- Fold Change orotic acid ([4]; nLC): 0
- Fold Change phenylpyruvic acid ([4]; nLC): 0
- Fold Change phosphoenolpyruvate ([4]; nLC): 0
- Fold Change pinitol ([4]; nLC): 0
- Fold Change porphobilinogen ([4]; nLC): 0
- Fold Change retinoic acid ([4]; nLC): 0
- Fold Change salicylic/HObenzoic ([4]; nLC): 0
- Fold Change shikimic acid ([4]; nLC): 0
- Fold Change sinapinic acid ([4]; nLC): 0
- Fold Change thymine ([4]; nLC): 0
- Fold Change urocanic acid ([4]; nLC): 0
- Fold Change xanthosine-DiH2O ([4]; nLC): 0
- Fold Change zeatin ([4]; nLC): 0
- Fold Change 4-aminobenzoic acid ([4]; pLC): 0
- Fold Change 4-methylcatechol ([4]; pLC): 0
- Fold Change 5hydroxyL-tryptophan ([4]; pLC): 0
- Fold Change 6benzylaminopurine ([4]; pLC): 0
- Fold Change NacetylD-glucosamine ([4]; pLC): 0
- Fold Change NacetylL-glutamate ([4]; pLC): 0
- Fold Change abscisic acid ([4]; pLC): 0
- Fold Change adenosine ([4]; pLC): 0
- Fold Change allantoic acid ([4]; pLC): 0
- Fold Change anthranilic acid ([4]; pLC): 0
- Fold Change argininosuccinate ([4]; pLC): 0
- Fold Change biotin ([4]; pLC): 0
- Fold Change caffeine ([4]; pLC): 0
- Fold Change citric acid TME ([4]; pLC): 0
- Fold Change cytidine ([4]; pLC): 0
- Fold Change cytosine ([4]; pLC): 0
- Fold Change diaminopimelic acid ([4]; pLC): 0
- Fold Change dihydrofolic acid ([4]; pLC): 0
- Fold Change dipicolinic acid ([4]; pLC): 0
- Fold Change folic acid ([4]; pLC): 0
- Fold Change glucosamine ([4]; pLC): 0
- Fold Change glucosamine6PO4 ([4]; pLC): 0
- Fold Change histidine ([4]; pLC): 0
- Fold Change hydrocortisone ([4]; pLC): 0
- Fold Change itaconic acid dimes ([4]; pLC): 0
- Fold Change kinetin ([4]; pLC): 0
- Fold Change luteolin ([4]; pLC): 0
- Fold Change niacinamide ([4]; pLC): 0
- Fold Change nopaline ([4]; pLC): 0
- Fold Change phosphoenolpyruvate ([4]; pLC): 0
- Fold Change progesterone ([4]; pLC): 0
- Fold Change riboflavin ([4]; pLC): 0
- Fold Change sugar-phosphate ([4]; pLC): 0
- Fold Change thiamine ([4]; pLC): 0
- Fold Change thymine ([4]; pLC): 0
- Fold Change tryptophan ([4]; pLC): 0
- Fold Change uric acid ([4]; pLC): 0
- Fold Change urocanic acid ([4]; pLC): 0
- Fold Change xanthosine (diH2O) ([4]; pLC): 0
- Fold Change zeatin ([4]; pLC): 0

Structure (SMILES): CSc1nnc(C(C)(C)C)c(=O)n1N [Metribuzin]
- characteristic symptoms (morphological phenotype) [1]: rapid and widespread leaf necrosis

Structure (SMILES): O=C(O)COc1ccc(Cl)cc1Cl [2,4-D]
- Dev. leafWidth [1]: −1
- Dev. leafCurling [1]: 1
- Dev. leafTwisting [1]: 2
- Dev. matureLeafAnthocyanins [1]: 1
- Dev. matureLeafChlorosis [1]: 2
- Dev. matureLeafNecrosis [1]: 0
- Dev. newLeafAnthocyanins [1]: 0
- Dev. newLeafChlorosis [1]: 1
- Dev. newLeafNecrosis [1]: 0
- Dev. pointedLeaves [1]: 0
- Symptom Class [1]: 5
- Dev. tMic [1]: 2

Structure (SMILES): COC(=O)NS(=O)(=O)c1ccc(N)cc1 [Asulam]
- No. of Lethal Genes Altered (Arabidopsis thaliana [3]): 5

Structure (SMILES): CN(C)C(=O)Nc1ccc(Cl)c(Cl)c1 [Diuron]
- characteristic symptoms (morphological phenotype) [1]: rapid and widespread leaf necrosis
- Dev. leafWidth [1]: −2
- Dev. leafCurling [1]: 1
- Dev. leafTwisting [1]: 0
- Dev. matureLeafAnthocyanins [1]: 0
- Dev. matureLeafChlorosis [1]: 2
- Dev. matureLeafNecrosis [1]: 4
- Dev. newLeafAnthocyanins [1]: 0
- Dev. newLeafChlorosis [1]: 2
- Dev. newLeafNecrosis [1]: 4
- Dev. pointedLeaves [1]: 1
- Symptom Class [1]: 7
- Dev. tMic [1]: 1

Structure (SMILES): CC(C)C1(C)N=C(c2ncccc2C(=O)O)NC1=O (stereo not shown) [Imazapyr]
- characteristic symptoms (morphological phenotype) [1]: anthocyanin accumulation in the older leaves accompanied by chlorosis of the newly emerging leaves
- stress related (commonly regulated) metabolites (Arabidopsis thaliana [2]): Only a few, if any

Structure (SMILES): C[n+]1ccc(-c2cc[n+](C)cc2)cc1 [Paraquat]
- characteristic symptoms (morphological phenotype) [1]: rapid and widespread leaf necrosis
- Dev. leafWidth [1]: −1
- Dev. leafCurling [1]: 2
- Dev. leafTwisting [1]: 0
- Dev. matureLeafAnthocyanins [1]: 0
- Dev. matureLeafChlorosis [1]: 1
- Dev. matureLeafNecrosis [1]: 4
- Dev. newLeafAnthocyanins [1]: 0
- Dev. newLeafChlorosis [1]: 1
- Dev. newLeafNecrosis [1]: 4
- Dev. pointedLeaves [1]: 1
- Dev. tMic [1]: 2

Structure (SMILES): CCc1cnc(C2=NC(C)(C(C)C)C(=O)N2)c(C(=O)O)c1 (stereo not shown) [Imazethapyr]
- characteristic symptoms (morphological phenotype) [1]: anthocyanin accumulation in the older leaves accompanied by chlorosis of the newly emerging leaves

Structure (SMILES): CCNc1nc(Cl)nc(NC(C)C)n1 [Atrazine]
- characteristic symptoms (morphological phenotype) [1]: rapid and widespread leaf necrosis

Structure (SMILES): CP(=O)(O)CCC(N)C(=O)O (stereo not shown) [Glufosinate]
- characteristic symptoms (morphological phenotype) [1]: Chlorosis and leaf curling
- Dev. leafWidth [1]: −2
- Dev. leafCurling [1]: 2
- Dev. leafTwisting [1]: 1
- Dev. matureLeafAnthocyanins [1]: 0
- Dev. matureLeafChlorosis [1]: 3
- Dev. matureLeafNecrosis [1]: 0
- Dev. newLeafAnthocyanins [1]: 0
- Dev. newLeafChlorosis [1]: 3
- Dev. newLeafNecrosis [1]: 0
- Dev. pointedLeaves [1]: 1
- Symptom Class [1]: 3
- Dev. tMic [1]: 1
- Regulated Genes: Down (Arabidopsis thaliana [3]; [7]): 54
- No. of Lethal Genes Altered (Arabidopsis thaliana [3]): 10
- stress related (commonly regulated) metabolites (Arabidopsis thaliana [2]): Only a few, if any

Structure (SMILES): COc1nc(C)nc(NC(=O)NS(=O)(=O)c2ccccc2Cl)n1 [Chlorsulfuron]
- characteristic symptoms (morphological phenotype) [1]: anthocyanin accumulation in the older leaves accompanied by chlorosis of the newly emerging leaves
- No. of Lethal Genes Altered (Arabidopsis thaliana [3]): 8

Structure (SMILES): c1cc[n+]2c(c1)-c1cccc[n+]1CC2 [Diquat]
- characteristic symptoms (morphological phenotype) [1]: rapid and widespread leaf necrosis
- Dev. leafWidth [1]: −2
- Dev. leafCurling [1]: 2
- Dev. leafTwisting [1]: 0
- Dev. matureLeafAnthocyanins [1]: 0
- Dev. matureLeafChlorosis [1]: 1
- Dev. matureLeafNecrosis [1]: 4
- Dev. newLeafAnthocyanins [1]: 0
- Dev. newLeafChlorosis [1]: 1
- Dev. newLeafNecrosis [1]: 4
- Dev. pointedLeaves [1]: 1
- Symptom Class [1]: 7
- Dev. tMic [1]: 2
